# How the values were obtained:
# MCF7 = experiment: inhibitory concentration against the growth of breast cancer MCF-7 cell line after 72 hr of exposure; assay type: functional, cell-based; conditions: Homo sapiens, MCF7, 72 h
# A549 = experiment: inhibitory concentration against the growth of Non-small-cell lung carcinoma A549 cell line after 72 hr of exposure; assay type: functional, cell-based; conditions: Homo sapiens, A549, 72 h
Compound,IC50 (MCF7) [µM],IC50 (A549) [µM]
CCCCOC(=O)N[C@@H](c1cccs1)[C@@H](O)C(=O)O[C@H]1C[C@@]2(O)[C@@H](OC(=O)c3cc(OC)ccc3OC)[C@@H]3[C@]4(OC(C)=O)CO[C@@H]4C[C@H](O)[C@@]3(C)C(=O)[C@H](OC(C)=O)C(=C1C)C2(C)C,0.04,0.04
COc1ccc(OC)c(C(=O)O[C@H]2[C@@H]3[C@]4(OC(C)=O)CO[C@@H]4C[C@H](O)[C@@]3(C)C(=O)[C@H](OC(C)=O)C3=C(C)[C@@H](OC(=O)[C@H](O)[C@@H](NC(=O)c4ccco4)c4ccco4)C[C@]2(O)C3(C)C)c1,0.12,0.09
COc1ccc(OC)c(C(=O)O[C@H]2[C@@H]3[C@]4(OC(C)=O)CO[C@@H]4C[C@H](O)[C@@]3(C)C(=O)[C@H](OC(C)=O)C3=C(C)[C@@H](OC(=O)[C@H](O)[C@@H](NC(=O)c4ccccc4)c4cccs4)C[C@]2(O)C3(C)C)c1,> 3,> 3
CCCCOC(=O)N[C@@H](c1ccco1)[C@@H](O)C(=O)O[C@H]1C[C@@]2(O)[C@@H](OC(=O)c3cc(OC)ccc3OC)[C@@H]3[C@]4(OC(C)=O)CO[C@@H]4C[C@H](O)[C@@]3(C)C(=O)[C@H](OC(C)=O)C(=C1C)C2(C)C,0.03,0.03
COc1ccc(OC)c(C(=O)O[C@H]2[C@@H]3[C@]4(OC(C)=O)CO[C@@H]4C[C@H](O)[C@@]3(C)C(=O)[C@H](OC(C)=O)C3=C(C)[C@@H](OC(=O)[C@H](O)[C@@H](NC(=O)c4cccs4)c4cccs4)C[C@]2(O)C3(C)C)c1,0.03,0.03
COc1ccc(OC)c(C(=O)O[C@H]2[C@@H]3[C@]4(OC(C)=O)CO[C@@H]4C[C@H](O)[C@@]3(C)C(=O)[C@H](OC(C)=O)C3=C(C)[C@@H](OC(=O)[C@H](O)[C@@H](NC(=O)OC(C)(C)C)c4cccs4)C[C@]2(O)C3(C)C)c1,0.03,0.03
COc1ccc(OC)c(C(=O)O[C@H]2[C@@H]3[C@]4(OC(C)=O)CO[C@@H]4C[C@H](O)[C@@]3(C)C(=O)[C@H](OC(C)=O)C3=C(C)[C@@H](OC(=O)[C@H](O)[C@@H](NC(=O)c4ccccc4)c4ccccc4)C[C@]2(O)C3(C)C)c1,0.03,0.13
COc1ccc(OC)c(C(=O)O[C@H]2[C@@H]3[C@]4(OC(C)=O)CO[C@@H]4C[C@H](O)[C@@]3(C)C(=O)[C@H](OC(C)=O)C3=C(C)[C@@H](OC(=O)[C@H](O)[C@@H](NC(=O)c4cccs4)c4ccco4)C[C@]2(O)C3(C)C)c1,0.06,0.1
COc1ccc(OC)c(C(=O)O[C@H]2[C@@H]3[C@]4(OC(C)=O)CO[C@@H]4C[C@H](O)[C@@]3(C)C(=O)[C@H](OC(C)=O)C3=C(C)[C@@H](OC(=O)[C@H](O)[C@@H](NC(=O)c4ccccc4)c4ccco4)C[C@]2(O)C3(C)C)c1,0.21,0.22
COc1ccc(OC)c(C(=O)O[C@H]2[C@@H]3[C@]4(OC(C)=O)CO[C@@H]4C[C@H](O)[C@@]3(C)C(=O)[C@H](OC(C)=O)C3=C(C)[C@@H](OC(=O)[C@H](O)[C@@H](NC(=O)C=C(C)C)c4ccco4)C[C@]2(O)C3(C)C)c1,0.04,0.03
COc1ccc(OC)c(C(=O)O[C@H]2[C@@H]3[C@]4(OC(C)=O)CO[C@@H]4C[C@H](O)[C@@]3(C)C(=O)[C@H](OC(C)=O)C3=C(C)[C@@H](OC(=O)[C@H](O)[C@@H](NC(=O)c4ccco4)c4cccs4)C[C@]2(O)C3(C)C)c1,0.06,0.05
COc1ccc(OC)c(C(=O)O[C@H]2[C@@H]3[C@]4(OC(C)=O)CO[C@@H]4C[C@H](O)[C@@]3(C)C(=O)[C@H](OC(C)=O)C3=C(C)[C@@H](OC(=O)[C@H](O)[C@@H](NC(=O)OC(C)(C)C)c4ccccc4)C[C@]2(O)C3(C)C)c1,0.06,0.05
COc1ccc(OC)c(C(=O)O[C@H]2[C@@H]3[C@]4(OC(C)=O)CO[C@@H]4C[C@H](O)[C@@]3(C)C(=O)[C@H](OC(C)=O)C3=C(C)[C@@H](OC(=O)[C@H](O)[C@@H](NC(=O)OC(C)(C)C)c4ccco4)C[C@]2(O)C3(C)C)c1,0.04,0.03
CC(=O)O[C@@]12CO[C@@H]1C[C@H](O)[C@@]1(C)C(=O)[C@H](O)C3=C(C)[C@@H](OC(=O)[C@H](O)[C@@H](NC(=O)OC(C)(C)C)c4ccccc4)C[C@@](O)([C@@H](OC(=O)c4ccccc4)[C@H]21)C3(C)C [DOCETAXEL],1,1
CC(=O)O[C@H]1C(=O)[C@@]2(C)[C@H]([C@H](OC(=O)c3ccccc3)[C@]3(O)C[C@H](OC(=O)[C@H](O)[C@@H](NC(=O)c4ccccc4)c4ccccc4)C(C)=C1C3(C)C)[C@]1(OC(C)=O)CO[C@@H]1C[C@@H]2O [PACLITAXEL],0.8,1.7

# Next, values leading:
IC50 (MCF7) [µM],IC50 (A549) [µM],Compound
0.03,0.04,CCCCOC(=O)N[C@@H](C=C(C)C)[C@@H](O)C(=O)O[C@H]1C[C@@]2(O)[C@@H](OC(=O)c3cc(OC)ccc3OC)[C@@H]3[C@]4(OC(C)=O)CO[C@@H]4C[C@H](O)[C@@]3(C)C(=O)[C@H](OC(C)=O)C(=C1C)C2(C)C
0.03,0.04,COc1ccc(OC)c(C(=O)O[C@H]2[C@@H]3[C@]4(OC(C)=O)CO[C@@H]4C[C@H](O)[C@@]3(C)C(=O)[C@H](OC(C)=O)C3=C(C)[C@@H](OC(=O)[C@H](O)[C@H](C=C(C)C)NC(=O)c4cccs4)C[C@]2(O)C3(C)C)c1
0.01,0.03,C/C=C/C(=O)N[C@@H](C=C(C)C)[C@@H](O)C(=O)O[C@H]1C[C@@]2(O)[C@@H](OC(=O)c3cc(OC)ccc3OC)[C@@H]3[C@]4(OC(C)=O)CO[C@@H]4C[C@H](O)[C@@]3(C)C(=O)[C@H](OC(C)=O)C(=C1C)C2(C)C
0.13,0.16,C/C=C/C(=O)N[C@@H](c1ccco1)[C@@H](O)C(=O)O[C@H]1C[C@@]2(O)[C@@H](OC(=O)c3cc(OC)ccc3OC)[C@@H]3[C@]4(OC(C)=O)CO[C@@H]4C[C@H](O)[C@@]3(C)C(=O)[C@H](OC(C)=O)C(=C1C)C2(C)C
0.04,0.04,COc1ccc(OC)c(C(=O)O[C@H]2[C@@H]3[C@]4(OC(C)=O)CO[C@@H]4C[C@H](O)[C@@]3(C)C(=O)[C@H](OC(C)=O)C3=C(C)[C@@H](OC(=O)[C@H](O)[C@H](C=C(C)C)NC(=O)c4ccccc4)C[C@]2(O)C3(C)C)c1
0.04,0.04,COc1ccc(OC)c(C(=O)O[C@H]2[C@@H]3[C@]4(OC(C)=O)CO[C@@H]4C[C@H](O)[C@@]3(C)C(=O)[C@H](OC(C)=O)C3=C(C)[C@@H](OC(=O)[C@H](O)[C@H](C=C(C)C)NC(=O)OC(C)(C)C)C[C@]2(O)C3(C)C)c1
0.03,0.06,COc1ccc(OC)c(C(=O)O[C@H]2[C@@H]3[C@]4(OC(C)=O)CO[C@@H]4C[C@H](O)[C@@]3(C)C(=O)[C@H](OC(C)=O)C3=C(C)[C@@H](OC(=O)[C@H](O)[C@H](C=C(C)C)NC(=O)c4ccco4)C[C@]2(O)C3(C)C)c1
0.02,0.02,COc1ccc(OC)c(C(=O)O[C@H]2[C@@H]3[C@]4(OC(C)=O)CO[C@@H]4C[C@H](O)[C@@]3(C)C(=O)[C@H](OC(C)=O)C3=C(C)[C@@H](OC(=O)[C@H](O)[C@H](C=C(C)C)NC(=O)C=C(C)C)C[C@]2(O)C3(C)C)c1
0.05,0.04,COc1ccc(OC)c(C(=O)O[C@H]2[C@@H]3[C@]4(OC(C)=O)CO[C@@H]4C[C@H](O)[C@@]3(C)C(=O)[C@H](OC(C)=O)C3=C(C)[C@@H](OC(=O)[C@H](O)[C@@H](NC(=O)C=C(C)C)c4cccs4)C[C@]2(O)C3(C)C)c1
0.16,0.18,C/C=C/C(=O)N[C@@H](c1cccs1)[C@@H](O)C(=O)O[C@H]1C[C@@]2(O)[C@@H](OC(=O)c3cc(OC)ccc3OC)[C@@H]3[C@]4(OC(C)=O)CO[C@@H]4C[C@H](O)[C@@]3(C)C(=O)[C@H](OC(C)=O)C(=C1C)C2(C)C

# Reference: ChEMBL document CHEMBL1138706, “Synthesis and biological evaluation of novel taxoids designed for targeted delivery to tumors” (Bioorg Med Chem Lett, 2004)
